Measurements as given in the supplement of paper PMC10307832.

Experiments:
Assay in all cases: relative viability (nuclei count vs DMSO), 5 days (fraction); higher = more cells survive
Venetoclax + Linsitinib = compound: CC1(C)CCC(CN2CCN(c3ccc(C(=O)NS(=O)(=O)c4ccc(NCC5CCOCC5)c([N+](=O)[O-])c4)c(Oc4cnc5[nH]ccc5c4)c3)CC2)=C(c2ccc(Cl)cc2)C1 [Venetoclax] + C[C@]1(O)C[C@@H](c2nc(-c3ccc4ccc(-c5ccccc5)nc4c3)c3c(N)nccn32)C1 [Linsitinib] (partner 1 µM)
How it was run: (§1)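 A single step with final 0.05% Triton X-100, 1% formaldehyde and 1 ug/ml Hoechst fixed the cells and stained nuclei 5 days after treatment. Lung cancer cell lines in 1536-well plates had been treated by pin tool the day after seeding with one drug alone or a fixed anchor-drug dose plus five library-drug doses (not always all listed) in √10 steps, and nuclei were counted on 4× images. Relative viability is the ratio of nuclei in treated wells to nuclei in vehicle wells, taken as the median of duplicate plates.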

Venetoclax + Dasatinib = compound: CC1(C)CCC(CN2CCN(c3ccc(C(=O)NS(=O)(=O)c4ccc(NCC5CCOCC5)c([N+](=O)[O-])c4)c(Oc4cnc5[nH]ccc5c4)c3)CC2)=C(c2ccc(Cl)cc2)C1 [Venetoclax] + Cc1nc(Nc2ncc(C(=O)Nc3c(C)cccc3Cl)s2)cc(N2CCN(CCO)CC2)n1 [Dasatinib] (partner 0.075 µM)
How it was run: as §1

Venetoclax + Pemetrexed = compound: CC1(C)CCC(CN2CCN(c3ccc(C(=O)NS(=O)(=O)c4ccc(NCC5CCOCC5)c([N+](=O)[O-])c4)c(Oc4cnc5[nH]ccc5c4)c3)CC2)=C(c2ccc(Cl)cc2)C1 [Venetoclax] + Nc1nc2[nH]cc(CCc3ccc(C(=O)N[C@@H](CCC(=O)O)C(=O)O)cc3)c2c(=O)[nH]1 [Pemetrexed] (partner 0.2 µM)
How it was run: as §1

Selumetinib + Lapatinib = compound: Cn1cnc2c(F)c(Nc3ccc(Br)cc3Cl)c(C(=O)NOCCO)cc21 [Selumetinib] + CS(=O)(=O)CCNCc1ccc(-c2ccc3ncnc(Nc4ccc(OCc5cccc(F)c5)c(Cl)c4)c3c2)o1 [Lapatinib] (partner 2 µM)
How it was run: as §1

Cell Line	relative viability (Venetoclax + Linsitinib; first compound 0.01 µM)	relative viability (Venetoclax + Linsitinib; first compound 0.03162 µM)	relative viability (Venetoclax + Linsitinib; first compound 0.1 µM)	relative viability (Venetoclax + Linsitinib; first compound 0.3162 µM)	relative viability (Venetoclax + Linsitinib; first compound 1 µM)	relative viability (Venetoclax + Dasatinib; first compound 0.01 µM)	relative viability (Venetoclax + Dasatinib; first compound 0.03162 µM)	relative viability (Venetoclax + Dasatinib; first compound 0.1 µM)	relative viability (Venetoclax + Dasatinib; first compound 0.3162 µM)	relative viability (Venetoclax + Dasatinib; first compound 1 µM)	relative viability (Venetoclax + Pemetrexed; first compound 0.01 µM)	relative viability (Venetoclax + Pemetrexed; first compound 0.03162 µM)	relative viability (Venetoclax + Pemetrexed; first compound 0.1 µM)	relative viability (Venetoclax + Pemetrexed; first compound 0.3162 µM)	relative viability (Venetoclax + Pemetrexed; first compound 1 µM)	relative viability (Selumetinib + Lapatinib; first compound 0.02 µM)	relative viability (Selumetinib + Lapatinib; first compound 0.06325 µM)	relative viability (Selumetinib + Lapatinib; first compound 0.2 µM)	relative viability (Selumetinib + Lapatinib; first compound 0.6325 µM)
HCC-78	0.494	0.563	0.433	0.571	0.596	0.442	0.441	0.409	0.323	0.368	0.896	0.875	0.965	0.935	0.881	0.695	0.64	0.657	0.675
COR-L23	0.864	0.953	0.879	0.897	0.815	0.414	0.505	0.484	0.495	0.504	0.181	0.177	0.189	0.199	0.197	1.18	1.1	0.98	1
HCC-827	0.997	0.973	1	0.978	0.87	0.336	0.368	0.34	0.33	0.334	0.239	0.289	0.25	0.269	0.28	0.175	0.182	0.187	0.18
NCI-H1437	0.92	1.08	0.975	0.952	0.932	0.508	0.494	0.274	0.44	0.478	0.309	0.316	0.328	0.309	0.308	0.588	0.528	0.351	0.252
PC-14	0.925	0.993	1.04	0.818	0.811	0.337	0.272	0.284	0.259	0.253	0.154	0.135	0.13	0.14	0.143	0.285	0.252	0.234	0.207
NCI-H2228	0.717	0.754	0.631	0.724	0.625	0.555	0.546	0.496	0.488	0.447	0.341	0.331	0.36	0.272	0.343	1.01	0.765	0.852	0.695
BEN	0.91	0.919	0.769	0.842	0.997	0.323	0.362	0.374	0.34	0.303	0.811	0.826	0.712	0.855	0.769	0.69	0.829	0.637	0.648
LOU-NH91	0.887	0.986	0.882	0.975	0.895	0.511	0.642	0.532	0.58	0.495	0.362	0.365	0.392	0.327	0.337	0.759	0.707	0.758	0.766
EKVX	0.909	0.976	0.88	1.03	0.844	0.576	0.641	0.437	0.567	0.47	0.471	0.402	0.351	0.427	0.35	0.171	0.263	0.241	0.168
NCI-H1355	0.812	0.814	0.778	0.792	0.753	0.697	0.731	0.623	0.723	0.602	1.02	1.08	1.01	1.08	1.01	0.959	0.785	0.693	0.558
NCI-H1666	0.909	0.864	0.731	0.759	0.745	0.816	0.821	0.838	0.708	0.766	0.726	0.916	0.919	0.805	0.799	0.506	0.286	0.351	0.477
NCI-H2126	0.792	0.733	0.695	0.741	0.689	0.568	0.572	0.612	0.607	0.546	0.748	0.737	0.67	0.653	0.611	0.714	0.671	0.7	0.667
NCI-H1793	0.905	1.04	0.692	0.818	0.778	0.448	0.355	0.291	0.358	0.27	0.944	0.976	0.732	0.799	0.713	0.827	0.581	0.503	0.504
COR-L 105	0.934	0.943	0.834	0.81	0.871	0.42	0.364	0.296	0.462	0.377	0.738	1.03	1.11	1.16	1.07	0.309	0.3	0.337	0.366
NCI-H1563	1.16	1.29	1.28	1.4	1.24	0.531	0.516	0.445	0.442	0.461	0.847	0.902	0.798	0.744	0.888	0.891	0.851	0.944	0.911
HARA	0.833	0.93	0.911	0.927	0.928	0.422	0.258	0.228	0.249	0.216	0.216	0.247		0.329	0.284	0.657	0.506	0.606	0.486
NCI-H2023	0.685	0.636	0.657	0.682	0.678	0.697	0.53	0.653	0.512	0.46	0.238	0.243	0.263	0.264	0.203	0.893	0.692	0.747	0.766

Cell Line	relative viability (Venetoclax + Linsitinib; first compound 0.01 µM)	relative viability (Venetoclax + Linsitinib; first compound 0.03162 µM)	relative viability (Venetoclax + Linsitinib; first compound 0.1 µM)	relative viability (Venetoclax + Linsitinib; first compound 0.3162 µM)	relative viability (Venetoclax + Linsitinib; first compound 1 µM)	relative viability (Venetoclax + Dasatinib; first compound 0.01 µM)	relative viability (Venetoclax + Dasatinib; first compound 0.03162 µM)	relative viability (Venetoclax + Dasatinib; first compound 0.1 µM)	relative viability (Venetoclax + Dasatinib; first compound 0.3162 µM)	relative viability (Venetoclax + Dasatinib; first compound 1 µM)	relative viability (Venetoclax + Pemetrexed; first compound 0.01 µM)	relative viability (Venetoclax + Pemetrexed; first compound 0.03162 µM)	relative viability (Venetoclax + Pemetrexed; first compound 0.1 µM)	relative viability (Venetoclax + Pemetrexed; first compound 0.3162 µM)	relative viability (Venetoclax + Pemetrexed; first compound 1 µM)	relative viability (Selumetinib + Lapatinib; first compound 0.02 µM)	relative viability (Selumetinib + Lapatinib; first compound 0.06325 µM)	relative viability (Selumetinib + Lapatinib; first compound 0.2 µM)	relative viability (Selumetinib + Lapatinib; first compound 0.6325 µM)
NCI-H1792	0.469	0.46	0.467	0.408	0.591	0.843	0.803	0.556	0.759	0.755	0.416	0.998	0.7	0.815	0.618	0.881	0.79	0.683	0.629
LXF-289	0.973	0.955	0.895	0.932	0.856	0.137	0.262	0.242	0.253	0.166	0.986	0.948	0.782	0.873	0.79	0.874	0.839	0.761	0.758
NCI-H2347	0.93	0.953	1.01	0.958	0.95	0.328	0.318	0.322	0.309	0.268	0.486	0.425	0.437	0.438	0.444	0.795	0.706	0.574	0.436
RERF-LC-KJ	0.792	0.899	0.904	0.883	0.85	0.62	0.84	0.784	0.779	0.675	0.473	0.487	0.45	0.438	0.506	0.768	0.885	0.828	0.811
NCI-H596	1.03	1.09	1.1	1.13	1.11	0.707	0.549	0.587	0.572	0.615	0.473	0.495	0.461	0.488	0.486	0.961	1.03	0.921	0.68
NCI-H1734	0.894	0.911	0.803	0.855	0.865	0.471	0.415	0.417	0.446	0.451	0.417	0.459	0.399	0.422	0.393	1.12	1.02	1.09	1.04
NCI-H1915	1.02	1.11	0.982	1.07	1.03	0.303	0.301	0.311	0.297	0.32	0.405	0.499	0.484	0.517	0.476	1.06	0.93	0.831	0.682
NCI-H838	1.11	1.03	1.01	1.03	0.938	0.367	0.288	0.303	0.312	0.279	0.246	0.261	0.264	0.234	0.24	0.838	0.732	0.861	0.671
HCC-15	0.763	0.826	0.742	0.794	0.771	0.607	0.627	0.587	0.645	0.549	0.24	0.236	0.217	0.217	0.201	0.786	0.575	0.463	0.398
NCI-H650	0.912	0.843		1.04	0.754	0.488	0.539	0.453	0.484	0.432	0.911	1.02	1.03	0.89	0.836	1.12	1.24	1.34	1.37
NCI-H1651	0.926	1.13	0.938	0.962	0.995	0.474	0.43	0.383	0.409	0.43	0.628	0.674	0.561	0.529	0.57	0.691	0.768	0.763	0.752
NCI-H2405	0.931	0.955		0.989	0.9	0.179	0.199	0.186	0.197	0.197	0.98	1.16	0.979	1.06	0.963	1.05	0.852	0.644	0.591
LU99A	0.482	0.604	0.505	0.56	0.55	0.625	0.632	0.659	0.516	0.583	0.177	0.239	0.163	0.172	0.178	1.05	1	1.02	0.963
H3255	1	0.953	0.809	0.873	0.915	0.367	0.399	0.373	0.446	0.404	0.584	0.615	0.526	0.603	0.562	0.238	0.267	0.218	0.243
NCI-H1993	0.73	0.651	0.739	0.775	0.749	0.641	0.546	0.493	0.541	0.537	0.565	0.579	0.599	0.57	0.668	0.931	0.762	0.887	0.706
NCI-H322M	0.913	0.916	0.889	0.891	0.852	0.291	0.239	0.237	0.246	0.24	0.606	0.581	0.598	0.627	0.596	0.524	0.479	0.439	0.438
